The text below walks through data of patent publication US8940863B2, “Selective anticancer chimeric peptides which bind neuropilin receptor” (Stella Pharma Corporation, priority 2008, dated 2015).

For one assay, the system named is HEK293. The note with it: HEK293 normal cells; 72 hours; mean (Table 2).
Another assay concerns MRC-5. Nature of the assay: Cell viability assay (WST-8). The note with it: MRC-5 normal cells; 72 hours; mean (Table 2). Background: Tetrazolium dyes change colour on reduction, which living cells bring about.
Assay [1] concerns BT-20.
In assay [2] the test system is human breast cancer cell line MDA-MB-231. Kind of assay: Antitumor effect in MDA-MB-231 bearing mouse models. The format is in vivo, athymic nude mice. The note with it: 1 mg/kg intravenously injected; from day 5.
Another assay deals with H322 lung cancer cells. Nature of the assay: Membrane permeabilization (calcein, confocal). In kind it is cell-based, human. The note with it: 10 μM; for percentage of influx of medium to the cells over time (words): compared with EB-Lytic peptide.
For assay [3], the system named is BT-20. Kind of assay: Annexin V assay and caspase assay. The format is cell-based, human. The note with it: 5 μM, two hours. As to the method:
BT-20 cells were treated for 2 hours at 37° C. with or without EB-lytic chimeric peptide at 5 μM. For determination of caspase activation or Annexin V-positive expression, peptide-treated cultures were simultaneously analyzed for caspase activity and propidium iodide (PI) staining using a carboxyfluorescein FLICA caspase-3&7 assay (Immunochemistry Technologies, Bloomington, Minn.), or, alternatively, for Annexin V labeling and PI staining by multiparametric flow cytometry. Furthermore, in accordance with the manufacturer's instructions, using a confocal laser scanning microscope, terminal deoxynucleotidyl transferase-dUTP nick end labeling (TUNEL) assay was conducted by MEBSTAIN Apoptosis Kit Direct (MBL).
In accordance with the method of Example 1, Annexin V assay and caspase assay were performed. […] For determination of caspase activation or Annexin V-positive expression, peptide-treated cultures were simultaneously analyzed for caspase activity and propidium iodide (PI) staining using a carboxyfluorescein FLICA caspase-3&7 assay (Immunochemistry Technologies, Bloomington, Minn.), or, alternatively, for Annexin V labeling and PI staining by multiparametric flow cytometry. The results are shown in FIG. 20A (Annexin V) and FIG. 20B (caspase activity)

Assay [4] deals with T1, human recombinant IL4R protein (Homo sapiens, UniProt P24394).
T1 sequence (P24394 26-825): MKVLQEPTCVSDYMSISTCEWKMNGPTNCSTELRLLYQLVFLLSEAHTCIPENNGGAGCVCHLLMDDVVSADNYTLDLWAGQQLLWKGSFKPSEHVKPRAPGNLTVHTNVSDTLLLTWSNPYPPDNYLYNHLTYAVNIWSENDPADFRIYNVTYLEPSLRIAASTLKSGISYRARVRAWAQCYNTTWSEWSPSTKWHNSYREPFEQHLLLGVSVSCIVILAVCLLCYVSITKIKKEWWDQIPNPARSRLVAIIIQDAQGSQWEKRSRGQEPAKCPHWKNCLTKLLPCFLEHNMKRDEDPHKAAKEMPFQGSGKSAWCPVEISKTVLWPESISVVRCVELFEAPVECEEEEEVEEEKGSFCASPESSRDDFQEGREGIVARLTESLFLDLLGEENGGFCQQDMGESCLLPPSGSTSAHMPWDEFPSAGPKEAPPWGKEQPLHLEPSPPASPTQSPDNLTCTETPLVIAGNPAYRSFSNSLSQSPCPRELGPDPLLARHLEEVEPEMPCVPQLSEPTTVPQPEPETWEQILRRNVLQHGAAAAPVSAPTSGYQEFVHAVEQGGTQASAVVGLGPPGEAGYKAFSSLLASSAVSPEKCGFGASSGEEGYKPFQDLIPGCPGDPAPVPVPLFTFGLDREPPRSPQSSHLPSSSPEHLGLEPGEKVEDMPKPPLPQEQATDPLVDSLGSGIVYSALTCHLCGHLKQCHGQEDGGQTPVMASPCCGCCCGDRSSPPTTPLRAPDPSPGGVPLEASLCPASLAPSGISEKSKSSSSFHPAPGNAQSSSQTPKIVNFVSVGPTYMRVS
Nature of the assay: BIACORE binding to IL4R. On the technique in general: In SPR one partner is held on a chip, and binding of the other changes the refractive index at the surface.

Another assay addresses EGFR (Homo sapiens, UniProt P00533). To be noted: Li Z et al., FASEB J 2005; read-out: dissociation constant to EGFR; cited from earlier work.
In the next assay the test system is T47D. Nature of the assay: Cell viability assay (WST-8). The format is cell-based, human. The note with it: 48 h. An excerpt: (§1) Correlation between IC50 values was observed.
The subject of the next assay is Panc-1. To be noted: 48 h.
Another assay deals with HuCCT-1. The note with it: 48 h.
The next assay deals with CFPAC-1. The note with it: 48 h.
Assay [5] deals with PE cell (pancreatic epidermal). Kind of assay: Cell viability assay (WST-8). The format is cell-based. The note with it: 48 h.
Description: as §1

A further assay deals with SK-BR-3. To be noted: 48 h.
The next assay relates to MDA-MB-231. The note with it: 48 h.
For another assay, the system named is HEK293T. The format is cell-based. To be noted: 48 h.
Setting [6] is: listed as EB (H2R)-Lytic peptide.

“Also recorded” adds a separate entry of the source. Read-outs that look alike come from different tables or passages of the source. Non-standard residues stand in square brackets, D forms with d. Residues, ends and D or L forms follow the SMILES beside them.

Description for H322 lung cancer cells: Calcein, a soluble fluorescence molecule, was added to H322 lung cancer cells in a glass-bottomed dish at a final concentration of 2 μM. […] At 0 minute, two minutes, five minutes, 10 minutes and 20 minutes after addition of peptide, using Olympus FV1000 confocal laser scanning microscope (Olympus), confocal images were taken.

Consider `CC[C@H](C)[C@H](NC(=O)[C@@H](NC(=O)[C@H](CC(N)=O)NC(=O)[C@H](CCC(N)=O)NC(=O)[C@@H]1CCCN1C(=O)[C@@H](NC(=O)[C@H](Cc1ccc(O)cc1)NC(=O)CNC(=O)[C@H](Cc1ccc(O)cc1)NC(=O)[C@H](Cc1c[nH]c2ccccc12)NC(=O)[C@H](CCCNC(=N)N)NC(=O)[C@@H](N)Cc1ccc(O)cc1)[C@@H](C)O)C(C)C)C(=O)NCC(=O)NCC(=O)NCC(=O)N[C@@H](CCCCN)C(=O)N[C@@H](CC(C)C)C(=O)N[C@H](CC(C)C)C(=O)N[C@@H](CC(C)C)C(=O)N[C@@H](CCCCN)C(=O)N[C@H](CC(C)C)C(=O)N[C@@H](CC(C)C)C(=O)N[C@H](CCCCN)C(=O)N[C@H](CCCCN)C(=O)N[C@@H](CC(C)C)C(=O)N[C@@H](CC(C)C)C(=O)N[C@@H](CCCCN)C(=O)N[C@H](CC(C)C)C(=O)N[C@@H](CC(C)C)C(=O)N[C@@H](CCCCN)C(=O)N[C@@H](CCCCN)C(=O)N[C@@H](CCCCN)C(=O)O` [EB(H2R)-lytic peptide] (H-YRWYGYTPQNVIGGGKL[dL]LK[dL]L[dK][dK]LLK[dL]LKKK-OH; N-terminus and C-terminus assumed), for which the concentration for half-maximal inhibition (IC50) in the assay with HEK293 is above 20 µM; in the assay with MRC-5 it was above 20 µM; in the assay on H322 (H322 cancer cells, 72 hours, mean (Table 2)), 3.2 µM; with BT-20 [1] (BT-20 cancer cells, 72 hours, mean (Table 2)) it was 1.9 µM; with U251 (U251 cancer cells, 72 hours, mean (Table 2)), 8.4 µM; in the assay with BxPC-3 (BxPC-3 cancer cells, 72 hours, mean (Table 2)), 6.6 µM. The half-inhibitory concentration (IC50) in the assay on SU.86.86 (SU.86.86 cancer cells, 72 hours, mean (Table 2)) is 7.4 µM; in the assay with LNCaP (LNCaP cancer cells, 72 hours, mean (Table 2)), 4.8 µM. Besides, the “IC50 Ratio EB-lytic peptide/EB(H2R)-lytic peptide” value is 2.1 in the assay with H322 (H322); 3.4 with BT-20 [1] (BT-20); 1.4 in the assay with U251 (U251); 1.8 in the assay with BxPC-3 (BxPC-3); 1.6 with SU.86.86 (SU.86.86); 2.1 in the assay with LNCaP (LNCaP). Further, in the assay with H322 (H322, 72 hours), the “cell-killing effect compared with wild-type EGFR-binding chimeric peptide” value was “enhanced more”. Also, in [2], the “antitumor effect” value is “in vivo antitumor effect higher; also recorded: higher antitumor effect in vivo; also recorded: sufficient antitumor effect”. Moreover, in the assay with H322 lung cancer cells (0 to 20 minutes), the “number of cells with the membrane disintegrated (green) over time” value is recorded as “increases in shorter time”. In addition, the figures for the “percentage of influx of medium to the cells over time (words)” value in the assay on H322 lung cancer cells (setting [6]) and in the assay on H322 lung cancer cells (listed as EB(H2R)-Lytic peptide) were “more rapid” and “more efficient”, respectively. Also, the “Annexin V-positive expression (words)” value is given as “induces Annexin V-positive expression more strongly” with BT-20 [3] (setting [6]) and “induced Annexin V-positive expression more strongly” in the assay on BT-20 [3] (listed as EB(H2R)-lytic). In addition, the “caspase 3,7 activation (words)” value in the assay with BT-20 [3] (setting [6]) was “induces caspase 3 & 7 activity more strongly”; with BT-20 [3] (listed as EB(H2R)-lytic), “induced caspase 3,7 activation more strongly”.
“KQLIRFLKRLDRN (IL4R binding peptide) [IL4R-binding peptide]”: the “binding affinity (BIACORE, words)” value in assay [4] is “binding affinity with human recombinant IL4R protein was observed”.
As to YHWYGYTPQNVI [EB peptide], at EGFR, the Kd was 22 nM.
As for `CC(C)C[C@H](NC(=O)[C@H](CCCCN)NC(=O)[C@@H](CC(C)C)NC(=O)[C@H](CC(C)C)NC(=O)[C@H](CCCCN)NC(=O)[C@H](CCCCN)NC(=O)[C@H](CC(C)C)NC(=O)[C@@H](CC(C)C)NC(=O)[C@@H](CCCCN)NC(=O)[C@H](CCCCN)NC(=O)[C@H](CC(C)C)NC(=O)[C@H](CC(C)C)NC(=O)[C@@H](CCCCN)NC(=O)[C@H](CC(C)C)NC(=O)[C@H](CC(C)C)NC(=O)CNC(=O)CNC(=O)[C@H](CCCNC(=N)N)NC(=O)[C@@H]1CCCN1C(=O)[C@H](Cc1ccc(O)cc1)NC(=O)[C@@H]1CCCN1C(=O)[C@@H](NC(=O)[C@H](CCCNC(=N)N)NC(=O)CNC(=O)[C@H](CCC(N)=O)NC(=O)[C@H](Cc1ccc(O)cc1)NC(=O)[C@@H]1CCCN1C(=O)[C@@H](NC(=O)[C@H](Cc1c[nH]c2ccccc12)NC(=O)[C@H](CCC(N)=O)NC(=O)[C@H](Cc1ccc(O)cc1)NC(=O)[C@@H](N)CC(N)=O)C(C)C)C(C)C)C(=O)O` [Sema3A(aa363-377)-nLytic] (H-NYQWVPYQGRVPYPRGGLL[dK]LLK[dK][dL]LKKL[dL]KL-OH; N-terminus and C-terminus assumed), the IC50 in the assay with T47D is 4.1 µM; with Panc-1 it was 13.1 µM; with BT-20 [1] (48 h), 10.9 µM; with HuCCT-1 it was 13.6 µM; in the assay on CFPAC-1, 10.6 µM; in [5], above 50 µM. The 50% inhibitory concentration (IC50) was 12.5 µM in the assay on BxPC-3 (48 h); 7.9 µM in the assay on SU.86.86 (48 h); 8 µM with SK-BR-3; 11.5 µM in the assay on MDA-MB-231; above 20 µM in the assay with HEK293T.
Consider `CC(C)C[C@H](NC(=O)[C@H](CCCCN)NC(=O)[C@@H](CC(C)C)NC(=O)[C@H](CC(C)C)NC(=O)[C@H](CCCCN)NC(=O)[C@H](CCCCN)NC(=O)[C@H](CC(C)C)NC(=O)[C@@H](CC(C)C)NC(=O)[C@@H](CCCCN)NC(=O)[C@H](CCCCN)NC(=O)[C@H](CC(C)C)NC(=O)[C@H](CC(C)C)NC(=O)[C@@H](CCCCN)NC(=O)[C@H](CC(C)C)NC(=O)[C@H](CC(C)C)NC(=O)CNC(=O)CNC(=O)[C@H](CCCNC(=N)N)NC(=O)[C@@H]1CCCN1C(=O)[C@H](Cc1ccc(O)cc1)NC(=O)[C@@H]1CCCN1C(=O)[C@@H](NC(=O)[C@H](CCCNC(=N)N)NC(=O)CN)C(C)C)C(=O)O` [Sema3A(aa371-377)-nLytic] (H-GRVPYPRGGLL[dK]LLK[dK][dL]LKKL[dL]KL-OH; N-terminus and C-terminus assumed), for which the half-maximal inhibitory concentration (IC50) in the assay on T47D is 3.7 µM; in the assay with Panc-1 it was 14.1 µM; with BT-20 [1] (48 h), 11.4 µM; in the assay on HuCCT-1, 7.9 µM; in the assay with CFPAC-1, 9.2 µM; in assay [5] it was above 50 µM. Moreover, the IC50 is 14.7 µM with BxPC-3 (48 h); 8 µM in the assay with SU.86.86 (48 h); 14.5 µM in the assay on SK-BR-3; 8.1 µM with MDA-MB-231; above 20 µM with HEK293T.

As a reminder, the IC50 is the concentration needed to halve the response being measured.
